The values that follow come from patent publication US20250171437A1 (Agios Pharmaceuticals,Inc., priority 2022, published 2025).

Bounds are passed on as bounds.

The first experiment has as its target T1, human PAH with the R408W mutation (A375 R408W cells) (Homo sapiens, UniProt P00439, R408W).
T1 construct: expressed in transfected cells
T1 sequence (P00439 1-452 R408W): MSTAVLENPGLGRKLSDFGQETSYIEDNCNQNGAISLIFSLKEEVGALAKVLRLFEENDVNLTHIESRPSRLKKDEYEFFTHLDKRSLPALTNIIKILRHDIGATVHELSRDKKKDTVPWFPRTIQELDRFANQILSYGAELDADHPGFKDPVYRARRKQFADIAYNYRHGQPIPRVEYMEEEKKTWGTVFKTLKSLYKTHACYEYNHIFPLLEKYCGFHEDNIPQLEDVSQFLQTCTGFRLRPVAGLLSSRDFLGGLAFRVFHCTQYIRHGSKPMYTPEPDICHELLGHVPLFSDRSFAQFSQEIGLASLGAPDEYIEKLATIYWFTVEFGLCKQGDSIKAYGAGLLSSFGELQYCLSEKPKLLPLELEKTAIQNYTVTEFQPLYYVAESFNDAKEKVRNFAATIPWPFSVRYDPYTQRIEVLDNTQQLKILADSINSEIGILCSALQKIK
Description: Cell Based Phenylalanine Flux Assay. The following applies: A375 R408W cells; 24 hrs with compound, then 20 μM sepiapterin and 800 μM 13C9,15N-Phenylalanine for 4 hours; 13C-Tyrosine by LC-MS; average where tested multiple times. As to the method: Cells expressing R408W PAH were made by transducing A375 cells with lentivirus encoding human PAH with the R408W mutation in pLVX-Puro, then selecting with puromycin until stable cell lines were generated. A375 R408W cells were seeded into 96 well plates in DMEM+10% FBS at a density of 40,000 cells/well one hour prior to compound addition. Compounds were resuspended in DMSO, and 2-fold serial dilutions were performed to generate a 10-point dose curve. Compounds were added to plated cells in a total volume of 100 μl, and a final DMSO concentration of 0.5%. Each compound was tested in duplicate. Following compound addition, cells were placed in a 5% CO2, 37° C. tissue culture incubator for 24 hrs. After the incubation period, 20 μM sepiapterin and 800 μM 13C9,15N-Phenylalanine were added. After 4 hours, cell media was removed. An aliquot of 10 μl of cell media was combined with 200 μl of extraction buffer (80% acetonitrile/20% H2O) for each well. Determination of ^13C-Tyrosine concentration was assessed by liquid chromatography mass spectrometry.
Specific compounds disclosed herein were tested in the foregoing assay and they were determined to have an AC50 according to the following scores: (A) less than or equal to 0.500 μM, (B) greater than 0.500 and less than […], (C) greater than or equal to 1.000 and less than 5.000 μM, (D) greater than or equal to 5.000 μM, (E) no fit, and (NT) not tested, as shown below. Where a compound was tested multiple times, the average value of the tests is reported.
`CN1CCN(c2nc(C(F)F)c(C(=O)N3CCc4[nH]cnc4[C@H]3c3nc4cc(F)ccc4o3)o2)CC1` [Example 403, (S)-(4-(difluoromethyl)-2-(4-methylpiperazin-1-yl)oxazol-5-yl)(4-(5-fluorobenzo[d]oxazol-2-yl)-6,7-dihydro-1H-imidazo[4,5-c]pyridin-5(4H)-yl)methanone]: the AC50 fell in the range of 500 to 1000 nM.
For `O=C(c1nnc(C2CC2)o1)N1CCc2[nH]cnc2[C@H]1c1nc2cc(F)ccc2o1` [Example 15, (S)-(5-cyclopropyl-1,3,4-oxadiazol-2-yl)(4-(5-fluorobenzo[d]oxazol-2-yl)-6,7-dihydro-1H-imidazo[4,5-c]pyridin-5(4H)-yl)methanone], the concentration at half-maximal activity (AC50) lay within 500 to 1000 nM.
Same read-out and setting: under `Cc1ccc2oc([C@@H]3c4nc[nH]c4CCN3C(=O)c3oc(-c4cnn(C)c4)nc3C(F)F)nc2c1` [Example 771, (S)-(4-(difluoromethyl)-2-(1-methyl-1H-pyrazol-4-yl)oxazol-5-yl)(4-(5-methylbenzo[d]oxazol-2-yl)-6,7-dihydro-1H-imidazo[4,5-c]pyridin-5(4H)-yl)methanone] stands not above 500 nM; under `O=C(c1cnn2cc(Br)ccc12)N1CCc2[nH]cnc2[C@@H]1c1nc2cc(F)ccc2o1` [Example 70, (R)-(6-bromopyrazolo[1,5-a]pyridin-3-yl)(4-(5-fluorobenzo[d]oxazol-2-yl)-6,7-dihydro-1H-imidazo[4,5-c]pyridin-5(4H)-yl)methanone], 1000 to 5000 nM; under `Cc1cccc2nc([C@@H]3c4nc[nH]c4CCN3C(=O)c3ocnc3C(F)F)oc12` [Example 393, (S)-(4-(difluoromethyl)oxazol-5-yl)(4-(7-methylbenzo[d]oxazol-2-yl)-6,7-dihydro-1H-imidazo[4,5-c]pyridin-5(4H)-yl)methanone], not above 500 nM.
In the case of `O=C(c1ocnc1C(F)F)N1CCc2[nH]cnc2[C@@H]1c1nc2c(Br)cccc2o1` [Example 434, (R)-(4-(4-bromobenzo[d]oxazol-2-yl)-6,7-dihydro-1H-imidazo[4,5-c]pyridin-5(4H)-yl)(4-(difluoromethyl)oxazol-5-yl)methanone], the AC50 was not above 500 nM.
Turning to `CC(C)(O)c1nc(C(F)F)c(C(=O)N2CCc3[nH]cnc3[C@@H]2c2nc3cc(F)ccc3o2)o1` (single isomer, unassigned) [Example 108], the concentration at half-maximal activity (AC50) is 1000 to 5000 nM.
With `Cn1cc(-c2nnc(C(=O)N3CCc4[nH]cnc4[C@H]3c3nc4c(F)c(F)ccc4o3)o2)cn1` [Example 645, (S)-(4-(4,5-difluorobenzo[d]oxazol-2-yl)-6,7-dihydro-1H-imidazo[4,5-c]pyridin-5(4H)-yl)(5-(1-methyl-1H-pyrazol-4-yl)-1,3,4-oxadiazol-2-yl)methanone], the AC50 lay in the range of 1000 to 5000 nM.
Turning to `Cc1ccc2oc([C@@H]3c4nc[nH]c4CCN3C(=O)c3nnc(-c4ccn(C(F)F)n4)o3)nc2c1` [Example 695, (S)-(5-(1-(difluoromethyl)-1H-pyrazol-3-yl)-1,3,4-oxadiazol-2-yl)(4-(5-methylbenzo[d]oxazol-2-yl)-6,7-dihydro-1H-imidazo[4,5-c]pyridin-5(4H)-yl)methanone], the AC50 is not above 500 nM.
For `Cc1cccc2oc([C@H]3c4nc[nH]c4CCN3C(=O)c3nnc(-c4ccccn4)o3)nc12` [Example 481, (R)-(4-(4-methylbenzo[d]oxazol-2-yl)-6,7-dihydro-1H-imidazo[4,5-c]pyridin-5(4H)-yl)(5-(pyridin-2-yl)-1,3,4-oxadiazol-2-yl)methanone], the AC50 was in the range of 500 to 1000 nM.
In the case of `Cc1ccc(C)c2oc([C@H]3c4nc[nH]c4CCN3C(=O)c3oc(C(C)(C)O)nc3C(F)F)nc12` [Example 660, (R)-(4-(difluoromethyl)-2-(2-hydroxypropan-2-yl)oxazol-5-yl)(4-(4,7-dimethylbenzo[d]oxazol-2-yl)-6,7-dihydro-1H-imidazo[4,5-c]pyridin-5(4H)-yl)methanone], the AC50 lay within 1000 to 5000 nM.
On the same count and under the same terms, under `CC(F)(F)c1ncoc1C(=O)N1CCc2[nH]cnc2[C@H]1c1nc2c(F)cccc2o1` [Example 651, (S)-(4-(1,1-difluoroethyl)oxazol-5-yl)(4-(4-fluorobenzo[d]oxazol-2-yl)-6,7-dihydro-1H-imidazo[4,5-c]pyridin-5(4H)-yl)methanone] stands not above 500 nM; under `COc1ccc(-c2nnc(C(=O)N3CCc4[nH]cnc4[C@@H]3c3nc4cc(F)ccc4o3)o2)nc1` [Example 441, (R)-(4-(5-fluorobenzo[d]oxazol-2-yl)-6,7-dihydro-1H-imidazo[4,5-c]pyridin-5(4H)-yl)(5-(5-methoxypyridin-2-yl)-1,3,4-oxadiazol-2-yl)methanone], 1000 to 5000 nM.
As for `Cn1cc(-c2nnc(C(=O)N3CCc4[nH]cnc4[C@H]3c3nc4ccc(F)c(F)c4o3)o2)cn1` [Example 515, (S)-(4-(6,7-difluorobenzo[d]oxazol-2-yl)-6,7-dihydro-1H-imidazo[4,5-c]pyridin-5(4H)-yl)(5-(1-methyl-1H-pyrazol-4-yl)-1,3,4-oxadiazol-2-yl)methanone], the half-maximal activity concentration (AC50) was 500 to 1000 nM.
For `CNc1cn2ncc(C(=O)N3CCc4[nH]cnc4[C@@H]3c3nc4cc(F)ccc4o3)c2cc1Cl` [Example 206, (R)-(5-chloro-6-(methylamino)pyrazolo[1,5-a]pyridin-3-yl)(4-(5-fluorobenzo[d]oxazol-2-yl)-6,7-dihydro-1H-imidazo[4,5-c]pyridin-5(4H)-yl)methanone], the AC50 lay in the range of 1000 to 5000 nM.
On the same count and under the same terms, under `COc1ccc2oc([C@H]3c4nc[nH]c4CCN3C(=O)c3nnc(-c4ccccn4)o3)nc2c1` [Example 556, (R)-(4-(5-methoxybenzo[d]oxazol-2-yl)-6,7-dihydro-1H-imidazo[4,5-c]pyridin-5(4H)-yl)(5-(pyridin-2-yl)-1,3,4-oxadiazol-2-yl)methanone] stands 1000 to 5000 nM.
Consider `Cc1cccc2nc([C@H]3c4nc[nH]c4CCN3C(=O)c3nnc(-c4ncccc4F)o3)oc12` [Example 857, (R)-(5-(3-fluoropyridin-2-yl)-1,3,4-oxadiazol-2-yl)(4-(7-methylbenzo[d]oxazol-2-yl)-6,7-dihydro-1H-imidazo[4,5-c]pyridin-5(4H)-yl)methanone], for which the AC50 lay within 1000 to 5000 nM.
Consider `Cc1cc(C(=O)N2CCc3[nH]cnc3[C@H]2c2nc3ccccc3o2)n(C)n1` [Example 779, (S)-(4-(benzo[d]oxazol-2-yl)-6,7-dihydro-1H-imidazo[4,5-c]pyridin-5(4H)-yl)(1,3-dimethyl-1H-pyrazol-5-yl)methanone], for which the AC50 was 1000 to 5000 nM.
The same measure, in the same setting: under `CNC(C)(C)c1nc(C(F)F)c(C(=O)N2CCc3[nH]cnc3[C@H]2c2nc3cc(F)ccc3o2)o1` [Example 221, (S)-(4-(difluoromethyl)-2-(2-(methylamino)propan-2-yl)oxazol-5-yl)(4-(5-fluorobenzo[d]oxazol-2-yl)-6,7-dihydro-1H-imidazo[4,5-c]pyridin-5(4H)-yl)methanone] stands 500 to 1000 nM; under `Cn1ccc(-c2nc(C(F)F)c(C(=O)N3CCc4[nH]cnc4[C@H]3c3nc4cc(F)ccc4o3)o2)n1` [Example 411, (S)-(4-(difluoromethyl)-2-(1-methyl-1H-pyrazol-3-yl)oxazol-5-yl)(4-(5-fluorobenzo[d]oxazol-2-yl)-6,7-dihydro-1H-imidazo[4,5-c]pyridin-5(4H)-yl)methanone], not above 500 nM.
As to `Cc1cccc2oc([C@H]3c4nc[nH]c4CCN3C(=O)c3nc(C(F)F)nn3C)nc12` [Example 448, (R)-(3-(difluoromethyl)-1-methyl-1H-1,2,4-triazol-5-yl)(4-(4-methylbenzo[d]oxazol-2-yl)-6,7-dihydro-1H-imidazo[4,5-c]pyridin-5(4H)-yl)methanone], the half-maximal activity concentration (AC50) fell in the range of 1000 to 5000 nM.
As for `COCc1nc(C(F)F)c(C(=O)N2CCc3[nH]cnc3[C@@H]2c2nc3cc(F)ccc3o2)o1` [Example 109, (R)-(4-(difluoromethyl)-2-(methoxymethyl)oxazol-5-yl)(4-(5-fluorobenzo[d]oxazol-2-yl)-6,7-dihydro-1H-imidazo[4,5-c]pyridin-5(4H)-yl)methanone], the concentration at half-maximal activity (AC50) is 1000 to 5000 nM.

Still in this experiment, the particulars now being: A375 cells expressing R408W PAH; 24 hrs with compound, then 20 μM sepiapterin and 800 μM 13C9,15N-Phenylalanine for 4 hours; 13C-Tyrosine by LC-MS; average where tested multiple times.
Take `Nc1ccc2c(C(=O)N3CCc4[nH]cnc4C3c3nc4cc(F)ccc4o3)cnn2c1` (stereo not shown): the AC50 is not below 5000 nM.
The same measure, in the same setting: under `CC1CN(C(=O)c2oc(C(C)(C)O)nc2C(F)F)C(c2nc3cc(F)ccc3o2)c2nc[nH]c21` (stereo not shown) stands 1000 to 5000 nM; under `O=C(c1cn(-c2ccccn2)nc1Cl)N1CCc2[nH]cnc2[C@@H]1c1nc2cc(F)ccc2o1` (single isomer, unassigned), not below 5000 nM.
